Source: patent US20190225650A1, “PEPTIDOMIMETIC MACROCYCLES AND USE THEREOF IN REGULATING HIF1ALPHA” (AILERON THERAPEUTICS, INC., priority 2013, published 2019)
Bridge positions count the residues as written; N and C are the ends. Square brackets hold non-standard residues; d marks the D form. Peptide text beside a SMILES is read from it. R8 = C=CCCCCCC[C@@](C)(N)C(=O)O; S5 = C=CCCC[C@](C)(N)C(=O)O; Nle = CCCC[C@H](N)C(=O)O

Tests used:
[1] = test system: HRE-bla ME-180 cells; test: Reporter gene assay (HRE-bla ME-180 HIF reporter, GeneBLAzer); type: cell-based, human; conditions: for EC50: 24 hour normoxia
Method in brief: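 A FRET β-lactamase readout of HIF transcription was used. After compound treatment in 0.3% DMSO/media under normoxic conditions, 20 μl of 6× LiveBLAzer-FRET B/G (CCF4-AM) substrate was added. Plates sat 3 hr at room temperature in the dark and were read at 409 Ex/460Em and 409Ex/530Em on a Synergy 2. Inhibition was compared against DMSO vehicle controls, with chetomin as positive control.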

[2] = test system: HRE-bla ME-180 cells; test: Cell proliferation assay (viability, MTT, 1% FBS); type: cell-based, human
Method in brief: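 ME-180 cells (2×10^4/well) in Opti-MEM with 1% FBS were pretreated 16 h under normoxia (21% O2), vehicle 0.5% DMSO final. Incubation then continued under normoxia or hypoxia (1% O2); viable cells quantified by MTT-type CellTiter 96 assay.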

[3] = target: T1, flag-tagged HIF1α (AA 786-826) / His6-tagged p300 (AA 323-423) complex (Homo sapiens, UniProt Q09472); test: HIF1α p300 displacement assay (TR FRET, +CHAPS); type: binding; conditions: read-out: IC50 (nM) (HIF1α_p300 Displacement + CHAPS)
T1 construct: His6-tagged p300 (AA 323-423); made in house; host or cells: E. coli (pETDuet vector)
Method in brief: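 The co-expressed flag-HIF1α (786-826)/His6-p300 (323-423) complex, purified from E. coli with 0.1 mM ZnSO4, was used at 300 nM final with competitor peptides for 1 h at room temperature. Buffer was 150 mM NaCl, 20 mM HEPES pH 7.4, 7.5 mM CHAPS and 1 mM DTT. Anti-Flag-K (0.5 μM) and anti-His-D2 (4 nM) were then added for 2 h, and IC50s were fitted from the TR-FRET ratio.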

Row | SMILES | EC50 [1] | IC50 [3] | 18 h Avg % max inhibition at top conc (HIF Rptr-24 hrs normoxia) (μM) [1] | Viability 1% FBS AVG (MTT V3-24 hr Normoxia) (μM) [2]
1 | CCCC[C@H](NC(=O)[C@H](CCC(=O)O)NC(=O)[C@]1(C)CCCC=CCCCCCC[C@@](C)(NC(=O)[C@H](CCC(=O)O)NC(=O)[C@H](CC(=O)O)NC(=O)[C@@H](NC(=O)[C@H](CC(N)=O)NC(=O)[C@@H](NC(=O)[C@]2(C)CCCC=CCCCCCC[C@@](C)(NC(=O)[C@H](CCC(=O)O)NC(=O)CNC(=O)[C@H](CCC(N)=O)NC(=O)[C@H](CC(C)C)NC(=O)[C@H](CC(C)C)NC(C)=O)C(=O)N[C@@H](CC(C)C)C(=O)N[C@@H](CC(C)C)C(=O)N[C@@H](CCCNC(=N)N)C(=O)N[C@@H](C)C(=O)N[C@@H](CC(C)C)C(=O)N[C@@H](C)C(=O)N2)C(C)C)[C@@H](C)CC)C(=O)N[C@@H](C(C)C)C(=O)N[C@@H](CC(C)C)C(=O)N[C@@H](CCCC)C(=O)N[C@@H](CO)C(=O)N[C@@H](CC(C)C)C(=O)N[C@@H](C(C)C)C(=O)N1)C(N)=O [SP-354] (Ac-LLQGE[R8]LLRALA[S5]VNIDE[R8]VL[Nle]SLV[S5]E[Nle]-NH2; staple 6-13, 19-26) | > 30 µM | 200 to 400 nM | +++ (≤25 but <50: +++) | ++++ (≥30: ++++)
2 | CC[C@H](C)[C@H](NC(=O)[C@H](Cc1ccccc1)NC(C)=O)C(=O)N[C@@H](CC(=O)O)C(=O)N[C@@H](CCC(=O)O)C(=O)N[C@@H](CCC(=O)O)C(=O)N[C@H](C(=O)N[C@@H](CC(C)C)C(=O)N[C@@H](CCSC)C(=O)N[C@@]1(C)CCCC=CCCC[C@@](C)(C(=O)N[C@@H](CCSC)C(=O)N[C@@H](C)C(=O)N[C@@H](CC(C)C)C(N)=O)NC(=O)[C@H]([C@@H](C)CC)NC(=O)[C@H](C(C)C)NC(=O)[C@H](Cc2ccccc2)NC1=O)C(C)C [SP-236] (Ac-FIDEEVLM[S5]FVI[S5]MAL-NH2; staple 9-13) | > 30 µM | > 700 nM | +++ (≤25 but <50: +++) | ++++ (≥30: ++++)
3 | CCCC[C@@H]1NC(=O)[C@H](CC(C)C)NC(=O)[C@](C)(NC(=O)[C@H](CCC(=O)O)NC(=O)[C@H](CCC(=O)O)NC(=O)[C@H](CC(=O)O)NC(=O)[C@@H](NC(=O)[C@H](CC(N)=O)NC(=O)[C@@H](NC(=O)[C@H](CCC(N)=O)NC(=O)[C@H](CC(=O)O)NC(=O)[C@H](CC(C)C)NC(=O)[C@]2(C)CCCC=CCCC[C@](C)(NC(=O)[C@H](CCC(=O)O)NC(=O)CNC(=O)[C@H](CCC(N)=O)NC(=O)[C@H](CC(C)C)NC(=O)[C@H](CC(C)C)NC(C)=O)C(=O)N[C@@H](CC(C)C)C(=O)N[C@@H](CC(C)C)C(=O)N[C@@H](CCCNC(=N)N)C(=O)N2)C(C)C)[C@@H](C)CC)CCCCCCC=CCCC[C@@](C)(C(=O)N[C@@H](CCCC)C(=O)NCC(N)=O)NC(=O)[C@H]([C@@H](C)CC)NC(=O)[C@H](C(C)C)NC(=O)[C@H](CC(C)C)NC(=O)[C@H](CO)NC1=O [SP-330] (Ac-LLQGE[S5]LLR[S5]LDQVNIDEE[R8]L[Nle]SLVI[S5][Nle]G-NH2; staple 6-10, 20-27) | > 30 µM | > 700 nM | + (<10: +) | ++++ (≥30: ++++)
4 | CCCC[C@H](NC(=O)[C@]1(C)CCCC=CCCC[C@](C)(NC(=O)[C@H](C)NC(=O)[C@H](Cc2ccccc2)NC(=O)[C@@H](NC(=O)[C@H](CCC(=O)O)NC(=O)[C@H](CCC(=O)O)NC(=O)[C@H](CC(=O)O)NC(=O)[C@@H](NC(=O)[C@H](Cc2ccccc2)NC(C)=O)[C@@H](C)CC)C(C)C)C(=O)N[C@@H](CC(C)C)C(=O)N[C@@H](C(C)C)C(=O)N[C@@H]([C@@H](C)CC)C(=O)N1)C(=O)N[C@@H](C)C(=O)N[C@@H](CC(C)C)C(=O)N[C@@H](CC(C)C)C(N)=O [SP-246] (Ac-FIDEEVFA[S5]LVI[S5][Nle]ALL-NH2; staple 9-13) | > 30 µM | > 700 nM | + (<10: +) | ++++ (≥30: ++++)
5 | CCCC[C@H](NC(=O)[C@H](CC(C)C)NC(=O)[C@@H](NC(=O)[C@H](CCC(=O)O)NC(=O)[C@H](CCC(=O)O)NC(=O)[C@H](CC(=O)O)NC(=O)[C@@H](NC(=O)[C@H](CC(N)=O)NC(=O)[C@@H](NC(=O)[C@]1(C)CCCC=CCCC[C@](C)(NC(=O)[C@H](CC(C)C)NC(=O)[C@H](CC(C)C)NC(=O)[C@H](CCC(=O)O)NC(=O)[C@H](CCC(=O)O)NC(=O)CNC(=O)[C@H](CCC(N)=O)NC(=O)[C@H](CC(C)C)NC(=O)[C@H](CC(C)C)NC(C)=O)C(=O)N[C@@H](C)C(=O)N[C@@H](CC(C)C)C(=O)N[C@@H](CC(=O)O)C(=O)N1)C(C)C)[C@@H](C)CC)C(C)C)C(=O)N[C@@]1(C)CCCC=CCCC[C@@](C)(C(=O)N[C@@H](CCCC)C(=O)NCC(N)=O)NC(=O)[C@H]([C@@H](C)CC)NC(=O)[C@H](C(C)C)NC(=O)[C@H](CC(C)C)NC1=O [SP-340] (Ac-LLQGEELL[S5]ALD[S5]VNIDEEVL[Nle][S5]LVI[S5][Nle]G-NH2; staple 9-13, 23-27) | > 30 µM | > 700 nM | ++ (≤10 but <25: ++) | ++++ (≥30: ++++)

Further lines, with some results ahead:

Row | EC50 [1] | IC50 [3] | SMILES | 18 h Avg % max inhibition at top conc (HIF Rptr-24 hrs normoxia) (μM) [1] | Viability 1% FBS AVG (MTT V3-24 hr Normoxia) (μM) [2]
6 | > 30 µM | 200 to 400 nM | CCCC[C@H](NC(=O)[C@H](CC(C)C)NC(=O)[C@@H](NC(=O)[C@H](CCC(=O)O)NC(=O)[C@H](CCC(=O)O)NC(=O)[C@H](CC(=O)O)NC(=O)[C@@H](NC(=O)[C@H](CC(N)=O)NC(=O)[C@@H](NC(=O)[C@H](CCC(N)=O)NC(=O)[C@H](CC(=O)O)NC(=O)[C@]1(C)CCCC=CCCC[C@](C)(NC(=O)[C@H](CCC(=O)O)NC(=O)[C@H](CCC(=O)O)NC(=O)CNC(=O)[C@H](CCC(N)=O)NC(=O)[C@H](CC(C)C)NC(=O)[C@H](CC(C)C)NC(C)=O)C(=O)N[C@@H](CC(C)C)C(=O)N[C@@H](CCCNC(=N)N)C(=O)N[C@@H](C)C(=O)N1)C(C)C)[C@@H](C)CC)C(C)C)C(=O)N[C@@]1(C)CCCC=CCCC[C@@](C)(C(=O)N[C@@H](CCCC)C(=O)NCC(N)=O)NC(=O)[C@H]([C@@H](C)CC)NC(=O)[C@H](C(C)C)NC(=O)[C@H](CC(C)C)NC1=O [SP-339] (Ac-LLQGEE[S5]LRA[S5]DQVNIDEEVL[Nle][S5]LVI[S5][Nle]G-NH2; staple 7-11, 23-27) | + (<10: +) | ++++ (≥30: ++++)
7 | 15 to 30 µM | 400 to 700 nM | CCCC[C@H](NC(=O)[C@H](Cc1ccccc1)NC(=O)[C@@H](NC(=O)[C@H](CCC(=O)O)NC(=O)[C@H](CCC(=O)O)NC(=O)[C@H](CC(=O)O)NC(=O)[C@@H](NC(=O)[C@H](Cc1ccccc1)NC(C)=O)[C@@H](C)CC)C(C)C)C(=O)N[C@@]1(C)CCCC=CCCC[C@@](C)(C(=O)N[C@@H](C)C(=O)N[C@@H](C)C(=O)N[C@@H](CC(C)C)C(=O)N[C@@H](CC(C)C)C(N)=O)NC(=O)[C@H]([C@@H](C)CC)NC(=O)[C@H](C(C)C)NC(=O)[C@H](CC(C)C)NC1=O [SP-247] (Ac-FIDEEVF[Nle][S5]LVI[S5]AALL-NH2; staple 9-13) | +++ (≤25 but <50: +++) | ++++ (≥30: ++++)
8 | > 30 µM | ≤ 200 nM | CCCC[C@H](NC(=O)[C@H](CC(C)C)NC(=O)[C@@H](NC(=O)[C@H](CCC(=O)O)NC(=O)[C@H](CCC(=O)O)NC(=O)[C@H](CC(=O)O)NC(=O)[C@@H](NC(=O)[C@H](CC(N)=O)NC(=O)[C@@H](NC(=O)[C@H](CCC(N)=O)NC(=O)[C@H](CC(=O)O)NC(=O)[C@H](CC(C)C)NC(=O)[C@H](C)NC(=O)[C@H](CCCNC(=N)N)NC(=O)[C@]1(C)CCCC=CCCC[C@](C)(NC(=O)[C@H](CCC(N)=O)NC(=O)[C@H](CC(C)C)NC(=O)[C@H](CC(C)C)NC(C)=O)C(=O)N[C@@H](CCC(=O)O)C(=O)N[C@@H](CCC(=O)O)C(=O)N[C@@H](CC(C)C)C(=O)N1)C(C)C)[C@@H](C)CC)C(C)C)C(=O)N[C@@]1(C)CCCC=CCCC[C@@](C)(C(=O)N[C@@H](CCCC)C(=O)NCC(N)=O)NC(=O)[C@H]([C@@H](C)CC)NC(=O)[C@H](C(C)C)NC(=O)[C@H](CC(C)C)NC1=O [SP-306] (Ac-LLQ[S5]EEL[S5]RALDQVNIDEEVL[Nle][S5]LVI[S5][Nle]G-NH2; staple 4-8, 23-27) | +++ (≤25 but <50: +++) | ++++ (≥30: ++++)
